This passage reports melting point results from a melting point compilation (Tetko et al.; mined from patent text by program, amines drawn as free bases though some values may be those of a salt).

For orientation: melting point means the temperature of the solid-liquid transition. `N#CC(=NNCc1c(Cl)cc(C(F)(F)F)cc1Cl)c1ccc(C#N)cc1` had a melting point of 92 to 93 °C.
Consider `CC(=O)Nc1cc(-c2ccncc2)c[nH]c1=O`, for which the melting point is greater than 300 °C.
The molecule `O=S(=O)(C=Cc1ccccc1)N1CCc2c([nH]c3ccccc23)C1c1ccc2c(c1)OCO2` (stereo unspecified) displayed a melting point of 191 to 192 °C.
Turning to `CC(=O)OCCn1c2c(c3ccccc3c1=O)C(=O)c1ccccc1-2`, the melting point was in the range of 221 to 224 °C.
To `C=CCC(F)(F)C(=O)C(Cc1ccccc1)NC(=O)c1ccccc1` (stereo unspecified) belongs 98 °C.
`COc1ccccc1C(=O)c1ccc(Cl)nc1` showed a melting point of 46 to 47 °C.
To `CCc1cnc(N2CCC(c3ccc4[nH]c(-c5ccc(S(C)(=O)=O)cc5F)nc4c3)CC2)nc1` belongs 220 to 224 °C.
To `COc1cc(Cn2cc(CCC(=O)O)c(-c3ccccc3)c2)cc(OCc2csc(-c3cnccn3)n2)c1` belongs 111 to 112 °C.
To `COc1ccc(C(=O)Nc2cc(C(=O)NCc3ccccc3)ccn2)cc1` belongs 165 to 166 °C; to `N#CC(CBr)c1ccccc1` (stereo unspecified), 63 °C; to `Nc1ncnc2c1c(-c1ccc(Oc3ccccc3CN3CCCCC3)cc1)cn2C1CCOC1` (stereo unspecified), 76 to 78 °C.
`CCOC(=O)c1ncn2c1CN(Cc1ccc(OC)cc1OC)C(=O)c1sccc1-2` displayed a melting point of 168 °C.
`O=C(O)COc1ccc2c(-c3ccoc3)noc2c1Cl` registered a melting point of 225 to 227 °C.
Molecule `COc1ncccc1-c1ccc(OC2SCC(O)C(O)C2O)cn1` (stereo unspecified) registered a melting point of 127 °C.
`CC(Br)C(=O)OCN1C(=O)NC(c2ccccc2)(c2ccccc2)C1=O` (stereo unspecified) registered a melting point of 112 to 115 °C.
`CCc1noc(-c2ncc3[nH]c4ccccc4c3n2)n1` came in with a melting point of 250 to 257 °C.
In turn, `Cc1cccc(C(N)=O)c1Nc1nc(Nc2ccc3c(c2)C(C)(C)CCC(=O)N3)ncc1Cl` returned a melting point of 220 to 222 °C.
To `O=S(=O)(CCl)N(Cc1cccnc1)c1ccc(Cl)cc1` belongs 98 to 100 °C.
To `COc1ccc(/C=C/c2ccc3c(=O)n(-c4ccccn4)ncc3c2)cc1` belongs 213 to 214 °C; to `Cc1cc(C#N)c(S(C)(=O)=O)cc1C(=O)O`, 248 to 249 °C; to `CCn1cc(Cc2ccc(C(=O)OC)cc2OC)c2cc(NC(=O)CC3CCCC3)ccc21`, 144 to 146 °C.
To `C=CCC1(C(C)CC(=O)OCC)C(=O)NC(=O)NC1=O` (stereo unspecified) belongs 114 °C; to `Cc1cc(C(=O)c2ccc(F)c(C)c2)ccc1F`, 128 to 130 °C.
Turning to `CC(C)n1nc(-c2c(-c3ccccc3)nc(N)[nH]c2=O)ccc1=O`, the melting point was in the range of 291 to 295 °C.
As for `CCOc1ccc2c(=O)cc(-c3ccccc3O)oc2c1`, the melting point was in the range of 295 to 297 °C.
To `CC1(C)Oc2ccc(C#N)cc2C(n2nc(-c3c(-c4ccccc4)nn4ccccc34)ccc2=O)C1O` (stereo unspecified) belongs 209 to 210 °C; to `CC(C)c1onc(-c2c(Cl)cccc2Cl)c1COc1ccc(N(C)Cc2ccc(C(=O)O)cc2)c(C(F)(F)F)n1`, 96.1 to 97.1 °C; to `O=C1Nc2ccc(Cl)cc2Cn2nnnc21`, 260 to 264 °C.
As for `CC[C@@H](c1ccccc1)N(Cc1ccc(C(=O)OC)cc1)S(=O)(=O)c1ccc(C(F)(F)F)cc1`, the melting point lay within 70 to 72 °C.
As to `COCc1ccc(Oc2cc(OC3CCOCC3)c3[nH]c(C4=NCC(CC(C)(C)O)S4)cc3c2)cn1` (stereo unspecified), the melting point was in the range of 108 to 110 °C.
Consider `Cc1cc(-c2ccc(C(F)(F)F)cc2)cn2c(-c3nc(-c4ccc(N)nc4)no3)cnc12`, for which the melting point turned out to be 257 °C.
To `Cc1nc2c(-c3cccc(N4CCN(C5CCN(C)CC5)CC4)c3)cnn2c(N)c1-c1cccc(Cl)c1` belongs 180 to 185 °C.
`CCOC(=O)CC1NC(=O)c2ccccc21` (stereo unspecified) displayed a melting point of 116 to 118 °C.
As to `C#CCCCOc1c(C)cc(C(=O)O)cc1C`, the melting point lay within 129 to 130 °C.
As to `CC(C)[C@H](NC(=O)c1ccc2ccccc2n1)C(=O)NC(Cc1ccccc1)C(O)CNCC(O)C(Cc1ccccc1)NC(=O)OC(C)(C)C` (stereo partly specified), the melting point fell in the range of 192 to 194 °C.
The molecule `COc1ccc2c(c1)c(=O)c(-c1nnnn1C)cn2C` showed a melting point of 280 to 283 °C.
To `CCOC(=O)C1=C(C)NC(C(OC)OC)=C(C(=O)OC)C1c1ccccc1[N+](=O)[O-]` (stereo unspecified) belongs 122 to 124 °C; to `ClCCCCOc1cccc(OCCCCCl)c1`, 85 to 86 °C; to `CCc1cnc(CC(C#Cc2ccccc2)c2ccc(OC)c(OC3CCCC3)c2)o1` (racemic), 94 to 96 °C.
To `CCOCc1nc2c(N)nc3cc(OCc4nccn4C)ccc3c2n1CC(C)(C)O` belongs 200 to 202 °C; to `CCCN(CC(=O)Nc1cnc(C)nc1N(CC)CC)c1ccccc1`, 96.6 to 98.1 °C; to `COC(=O)c1ccccc1-c1cc(-c2ccc(OC)cc2)[nH]n1`, 92 to 93 °C.
In turn, `O=C(Nc1ccc(Oc2ccnc(NC3(CO)CCCC3)n2)c2ccccc12)c1cc(F)cc(N2CCOCC2)c1` had a melting point of 115 to 117 °C.
`CCOCc1nc2c(N)nc3cc(-c4ccncc4)ccc3c2n1CC(C)C` showed a melting point of 211 to 213 °C.
The molecule `CNC(=O)N1N=C(c2ccc(N)cc2)c2cc3c(cc2CC1CO)OCO3` (stereo unspecified) had a melting point of 136 to 138 °C.
Take `CCCCc1nn(-c2cc([N+](=O)[O-])ccc2Cl)c(C(N)=O)c1Cc1ccc(Br)cc1F`: the melting point was 145 to 147 °C.
Take `CN(C)CCn1c(=O)c2cccc(N)c2c2cnc3cc4c(cc3c21)OCO4`: the melting point was 223 to 224 °C.
`COc1cc(Nc2c(C#N)cnc3sc(I)cc23)c(Cl)cc1Cl` registered a melting point of 231 to 233 °C.
In turn, `COc1ccc(-c2cc(=O)n(C)c(=O)n2C)cc1OC` registered a melting point of 118 to 120 °C.
For the molecule `Nn1cc(C(=O)O)c(=O)c2cc3c(cc21)OCO3`, the melting point is 309 to 313 °C.
Molecule `[N-]=[N+]=NCc1cc(C(N)C(=O)O)ccc1O` (stereo unspecified) displayed a melting point greater than 300 °C.
Take `CNCc1ccc2c(Br)c(OC)ccc2c1`: the melting point is 41 to 45 °C.
Consider `CN(C)c1nc(Cl)nc(N2CCOCC2)n1`, for which the melting point lay within 96 to 97 °C.
Molecule `COc1ccnn2c(-c3ccnc(N)c3)c(-c3ccc(F)c(C)c3)nc12` came in with a melting point of 219 to 220 °C.
To `CCCCN(CCCC)c1ccc(C=CC=CC=CC2=C(C#N)C(=C(C#N)C#N)OC2(c2ccccc2)C(F)(F)F)c(OC)c1` (stereo unspecified) belongs 208 to 210 °C; to `Cc1ccc(C(=O)OC(C)(C)C)cc1C=O`, 53 to 55 °C; to `CCOC(=O)c1csc(Br)n1`, 66 to 68 °C.
As for `O=C1CC2(CCc3cc4ccccc4n3C2)C(=O)N1` (stereo unspecified), the melting point lay in the range of 208 to 210 °C.
To `CC(C)(C)c1ccc(-c2[nH]c3cccc4c3c2CCNC4=O)cc1` belongs 243 to 244 °C; to `COc1cc(CC(=O)Nc2ccc(C(C)CC(=O)O)cc2)ccc1NC(=O)N1CCc2ccccc21` (stereo unspecified), 152 to 154 °C; to `COc1ccc(C(=O)Nc2ccccc2)cc1NS(=O)(=O)c1ccc([N+](=O)[O-])cc1`, 224 to 227 °C.
